According to patent US5646128A, “Methods for treating adenosine kinase related conditions” (priority 1994, dated 1997):
“Also recorded” adds a separate entry of the source.

Columns and labels:
[1] = tested on: adenosine release, rat cardiomyocytes; conditions: cited from earlier work
[2] = tested on: adenosine release, isolated guinea pig hearts; conditions: cited from earlier work
E. coli LPS endotoxemia = test: Survival in endotoxemia (E. coli LPS) in mice; format: in vivo, Balb/C mice; conditions: 200 mg/kg i.p. 30 minutes prior to LPS and drug
Excerpt: An adenosine kinase inhibitor (GP-1-515) was used to increase endogenous adenosine production in vivo.

TNF-α = test: Inhibition of TNF-alpha production in endotoxemic mice (ELISA); format: in vivo, Balb/C mice; conditions: 200 mg/kg i.p. 30 minutes prior to LPS and GP-1-515
Protocol: In these experiments, plasma TNF-α levels were measured in GP-1-515and placebo-treated mice (8 animals per group). Balb/C mice received an intravenous injection of E. coli LPS (900 ug/animal) (Sigma Chemical Co.) followed immediately by a second injection with 0.1 mg/kg of GP-1-515 or vehicle. Some animals were pretreated with an intraperitoneal injection of the adenosine receptor antagonist 8SPT. One hour later, blood was obtained from ether anesthetized animals by intracardiac puncture using a heparinized syringe. Blood samples were chilled on ice, centrifuged at 5000 rpm in a microcentrifuge for 5 minutes, and the plasma removed. TNF-α levels in the plasma were assayed by ELISA according to the instructions provided by the manufacturer (Endogen, Cambridge, Mass.).

[3] = Acute i.v. hemodynamics in the rat; format: in vivo, Sprague Dawley rats
Protocol: The ability of the adenosine kinase inhibitor GP-1-238 to show effects on blood pressure, heart rate or body temperature was compared in anesthetized and conscious rats. Sprague Dawley rats were anesthetized with pentobarbital and catheterized in the jugular vein and carotid artery. GP-1-238 (0.1-5 mg/kg/min) was infused intravenously in stepwise increments (0.2 mL/min×5 minutes). The experiments in conscious rats were conducted in the same manner after rats had been catheterized and allowed to recover for 2 days following surgery.

cardiac adenosine kinase = test: Inhibition of cardiac adenosine kinase in vivo; conditions: conscious rats, i.v.
[4] = tested on: fMLP-stimulated human neutrophils on human umbilical vein endothelial cells; test: Inhibition of neutrophil adherence to endothelial cells; format: cell-based; conditions: for inhibition of neutrophil adhesion to endothelial cells: fMLP-stimulated neutrophils, 2 hours, 37° C.; for effect of adenosine deaminase co-treatment on inhibition of neutrophil adhesion: with adenosine deaminase 0.125 U/mL
Protocol: The ability of an adenosine kinase inhibitor to affect neutrophil adherence to fibroblasts and endothelial cells was evaluated in a cell culture model. […] These incubations were carried out in the presence of fMLP-stimulated human neutrophils isolated from whole blood (1.25×10^6/mL) with or without adenosine deaminase (0.125 U/mL). At the end of the incubation, the medium was removed and the monolayers of fibroblasts or endothelial cells and adherent neutrophils were fixed by addition of formaldehyde (3.7%) and, after washing to remove non-adherent neutrophils, adherent neutrophils were stained with Weigart's hematoxylin and counted under a light microscope.

[5] = tested on: Mycobacterium butyricum adjuvant arthritis; test: Adjuvant arthritis in rats; format: in vivo, Lewis rats
Protocol: Lewis rats received a single subcutaneous tail injection of 0.75 mg Mycobacterium butyricum mixed in paraffin oil on day 0. […] Hind paw volume was measured by Mercury displacement.

[6] = tested on: adenosine uptake, rat brain slices; conditions: cited from earlier work
[7] = tested on: adenosine uptake, guinea pig brain slices; conditions: cited from earlier work
[8] = mouse, in vivo; cited from earlier work
[9] = cited from earlier work
adenosine kinase = molecular target: T1, adenosine kinase (Bos taurus, UniProt A0AAA9RZ79); test: Adenosine kinase inhibition in intact cells (capillary endothelial cells from bovine heart); format: cell-based; conditions: 20 μM 2'-deoxycoformycin, 5 μM [3H]adenosine
T1 construct: endogenous in cells; host or cells: capillary endothelial cells from bovine heart
T1 sequence (A0AAA9RZ79 1-362): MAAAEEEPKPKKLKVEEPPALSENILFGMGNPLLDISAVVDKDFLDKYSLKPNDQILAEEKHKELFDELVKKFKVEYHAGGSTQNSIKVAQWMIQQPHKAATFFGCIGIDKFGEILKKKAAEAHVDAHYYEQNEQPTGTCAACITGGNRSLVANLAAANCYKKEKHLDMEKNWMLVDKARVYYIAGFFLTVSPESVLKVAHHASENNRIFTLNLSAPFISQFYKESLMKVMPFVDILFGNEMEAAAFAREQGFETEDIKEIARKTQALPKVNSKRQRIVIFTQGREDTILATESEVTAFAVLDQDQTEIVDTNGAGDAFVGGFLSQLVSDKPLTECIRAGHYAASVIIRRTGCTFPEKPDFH
Protocol: Inhibition of adenosine kinase in intact cells was determined from the amount of incorporation of radioisotope from adenosine into the adenylates (AMP, ADP and ATP) in the presence of adenosine deaminase inhibition. […] The media was then discarded and the cells were treated with 50 μl 0.4M perchloric acid, centrifuged and the supernalants neutralized with 100 μl alanine: freon (1:4).

[10] = molecular target: T2, purified pig heart adenosine kinase (Sus scrofa, UniProt A0A5G2R0F5); test: Inhibition of adenosine kinase activity (purified pig heart enzyme); format: biochemical
T2 construct: purified pig heart adenosine kinase; from tissue; host or cells: pig heart
T2 sequence (A0A5G2R0F5 1-362): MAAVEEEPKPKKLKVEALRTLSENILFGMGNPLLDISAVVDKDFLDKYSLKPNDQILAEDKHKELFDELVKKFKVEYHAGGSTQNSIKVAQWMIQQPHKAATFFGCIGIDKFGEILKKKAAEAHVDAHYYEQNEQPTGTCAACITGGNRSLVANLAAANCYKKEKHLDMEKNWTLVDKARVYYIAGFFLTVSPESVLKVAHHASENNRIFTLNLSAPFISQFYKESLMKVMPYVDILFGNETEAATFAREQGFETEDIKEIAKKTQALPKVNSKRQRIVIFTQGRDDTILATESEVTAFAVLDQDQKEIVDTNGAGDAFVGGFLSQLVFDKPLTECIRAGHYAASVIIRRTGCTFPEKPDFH
Protocol: Inhibition of enzyme activity was determined using a 0.1 mL assay mixture containing 50 mM Tris-maleate, pH 7.0, 0.1% (w/v) BSA, 1 mM ATP, 1 mM MgCl2, 0.5 μM [U-^14 C]adenosine (500 mCi/mmol) and 0.1 μg of purified pig heart adenosine kinase. Different concentrations of the test compounds were incubated in the assay mixture for 20 min. at 37° C. From each reaction mixture, 20 μl portions were removed and spotted on 2 cm^2 pieces of Whatman DE81 filter paper. […] The papers were dried, and [^14 C]AMP measured by scintillation counting.

[11] = conscious animals, doses greatly in excess of that required to inhibit cardiac adenosine kinase

## OC[C@H]1O[C@@H](n2cnc3c2N=CNC[C@H]3O)C[C@@H]1O [2'-deoxycoformycin]
[1]; ADA inhibition alone
  adenosine release from rat cardiomyocytes: no effect on adenosine release

## NC[C@H]1O[C@@H](n2cnc3c(N)ncnc32)[C@H](O)[C@@H]1O [5'-amino-5'-deoxyadenosine]
[1]; inhibition of ADA together with adenosine kinase
  increase in adenosine release from rat cardiomyocytes: 6 -fold
[2]; absence of ADA inhibition
  adenosine release, isolated guinea pig hearts, no ADA inhibition: not apparent in the absence of ADA inhibition
[2]; in the presence of EHNA
  increase of adenosine release, isolated guinea pig hearts: 15 -fold

## Cn1c(=O)c2[nH]c(-c3ccc(S(=O)(=O)O)cc3)nc2n(C)c1=O [8-p-sulphophenyltheophylline, reference compound]
E. coli LPS endotoxemia
  effect on GP-1-515-induced protection: completely inhibited the protective effect of GP-1-515; also recorded: blocking the GP-1-515-induced protection
TNF-α
  effect on GP-1-515-induced decrease of plasma TNF-α: The decrease was prevented

## NC[C@H]1O[C@@H](n2cnc3c(N)ncnc32)[C@H](O)[C@@H]1O [GP-1-238]
[3]; [11]
  effect on blood pressure, conscious animals: No effects were observed
  effect on heart rate, conscious animals: No effects were observed
  effect on temperature, conscious animals: No effects were observed
[3]; i.v. infusion 0.1-5 mg/kg/min, conscious rats, in contrast to anesthetized animals
  hemodynamic effects, conscious rats: no hemodynamic effects were seen
Cardiac adenosine kinase
  inhibition of adenosine kinase in vivo: completely inhibited adenosine kinase in vivo

## CNc1ncnc2c1ncn2[C@@H]1O[C@H](CN)[C@@H](O)[C@H]1O [GP-1-272]
[4]
  inhibition of neutrophil adhesion to endothelial cells: inhibit neutrophil adhesion to endothelial cells; also recorded: dose-dependent inhibition
  effect of adenosine deaminase co-treatment on inhibition of neutrophil adhesion: reversed by adenosine deaminase treatment; also recorded: reversal of this inhibition

## C[C@H]1O[C@@H](n2cc(I)c3c(N)ncnc32)[C@H](O)[C@@H]1O [GP-1-456, 5'-deoxy-5-iodotubercidin]
[4]
  inhibition of neutrophil adhesion to endothelial cells: inhibit neutrophil adhesion to endothelial cells; also recorded: dose-dependent inhibition
  effect of adenosine deaminase co-treatment on inhibition of neutrophil adhesion: reversed by adenosine deaminase treatment; also recorded: reversal of this inhibition
[5]; 3 mg/kg p.o.
  reduction of hind paw edema: significant reduction of hind paw edema
[5]; 3 mg/kg p.o. day 1 through 19, day 19, untreated 2.55±0.20, p<0.05
  total mean hind paw edema: 1.41 ± 0.21 mL
[6]
  adenosine uptake, rat brain slices: inhibited
[7]
  adenosine uptake, guinea pig brain slices: inhibited
[8]
  body temperature in mice: hypothermia
  flaccidity and locomotor activity in mice: pronounced general flaccidity and much-reduced spontaneous locomotor activity
[9]
  blood pressure and heart rate in anesthetized rats: decrease blood pressure and heart rate

## C[C@H]1O[C@@H](n2nc(-c3ccccc3)c3c(Nc4ccccc4)ncnc32)[C@H](O)[C@@H]1O [GP-1-665]
Adenosine kinase
  IC50: 4.5 nM

## OC[C@H]1O[C@@H](n2cc(-c3ccco3)c3c(Nc4ccccc4)ncnc32)[C@H](O)[C@@H]1O [GP-1-718]
[10]
  IC50: < 10 nM
